{"source": "paper PMC10879279", "about": "(Frontiers in Behavioral Neuroscience, 2024)", "key": {"[1]": {"test_system": "zebrafish", "design": "method as in Maximino et al., 2014", "details": "similar to LCGM-10 and LCGM-15, ref Maximino et al., 2014, cited from earlier work"}, "[2]": {"test_system": "mGluR1", "experiment": "Luciferase reporter assay, mGluR1", "type": "cell-based", "details": "DHPG 10 µM; (−)-PHCCC 40 µM; HEK293, N = 3", "procedure": "(§1) Figure S5. The mGluR1- and mGliR4-luciferase reporter assay results. HEK293 cells transfected with genetic reporter systems were treated with DHPG (10 µM) or DHPG (10 µM) + (−)-PHCCC (40 µM) in the case of mGluR1 and with L-AP4 (1 µM) or L-AP4 (1 µM) + (−)-PHCCC (40 µM) in the case of mGluR4. LCGM-10 was administered at a dose of 20 and 200 µM. […] The data are presented as the mean ± standard deviation for three biological replicates (N=3 in each group). * P < 0.01 versus the transfected control + control agonist."}, "[3]": {"test_system": "human mGluR5", "experiment": "Calcium flux imaging, CHO-mGluR5 cells", "type": "cell-based", "description": "mGluR5 activation leads to Ca^2+ influx that could be blocked by adding a specific antagonists or NAMs ([Kettunen et al., 2002]; [Beggiato et al., 2018]). Elevation of intracellular Ca^2+ levels via the phospholipase C pathway is typical for all Gq-coupled GPCRs ([Liu et al., 2008]) and can be detected using a penetrating Ca^2+ indicator.\nThe CHO cell line stably expressing human mGluR5 was generated using T-Rex System (Thermo Fisher Scientific Inc., United States) according to the manufacturer’s instructions. Briefly, complementary DNA (cDNA) encoding human mGluR5 was subcloned into the pcDNA4/TO inducible expression vector, which was transfected into CHO cells carrying the pcDNA6/TR regulatory vector that expresses the tetracycline repressor. After 2 weeks of selection using 5 μg/mL blasticidin (Thermo Fisher Scientific Inc.) and 250 μg/mL zeocin (Thermo Fisher Scientific Inc.), pools of cells were screened for the expression of mGluR5 in the agonist-induced Ca^2+ uptake assay. Positive cells were expanded and used. mGluR5 expression was induced by adding up to 1 μg/mL of tetracycline (Thermo Fisher Scientific Inc.) 16 h before testing.\nFluorescent assays were performed using NOVOstar (BMG LABTECH, Germany). CHO-mGluR5 cells were seeded into black-walled, clear-bottomed 96-well plates at a density of 75,000 cells per well (complete media without antibiotics and containing 1 μg/mL of tetracycline to induce receptor expression) and were cultured overnight at 37°C. The cells were then loaded with the cytoplasmic calcium indicator Fluo-4 AM using the Fluo-4 Direct™ Calcium Assay Kits (Thermo Fisher Scientific Inc.) and incubated in the dark at 37°C for 60 min, and then at 25°C for 60 min. The buffer alone (control) or the buffer containing different concentrations of LCGM-10 (0.02, 2, 20, and 200 μM), LCGM-15 (0.02, 2, 20, and 200 μM), or 2-methyl-6-(phenylethynyl) pyridine ([MPEP] 0.1, 1, 10, and 100 μM; Sigma-Aldrich, United States) were added to the cells (in six replicate wells). […] The measurements were performed at pH 7.4 and 37°C."}, "[4]": {"test_system": "mGluR5", "experiment": "Luciferase reporter assay, mGluR5", "details": "transfected control cells; for antagonist effect on mGluR5 activity (in words): SIB 1757 10 μM + CHPG 1 mM", "method": "Ultimately, a chemiluminescent signal is produced by the promoter-driven reporter expression that is directly proportional to activation or inhibition of a specific GPCR in the cells ([Unal, 2019]).\nBriefly, the HEK293 cell line was transfected with three types of plasmids using polyethylenimine (PEI, 408727, Sigma-Aldrich, United States) 24 h prior to agonist application. Plasmid 1 encodes the GRM5–tTA fusion protein. The linker between mGluR5 and tTA is sensitive to TEV protease.^1 In case of testing the activity of LCGM-10 peptide toward mGluR1 and mGluR4, we applied the plasmids encoding GRM1-tTA^2 and GRM4-tTA^3 fusion proteins, respectively. Plasmid 2 encodes β-arrestin2–TEV protease fusion protein.^4 Plasmid 3 encodes the luciferase tTA reporter.^5 Transfected cells were treated with agonist/antagonist and incubated overnight (16 h). Antagonists were introduced 10 min prior to agonists. […] The luciferase test was performed using Promega™ Luciferase Assay Systems Kit (PR-E1500, Promega, United States) according to the manufacturer’s protocol.\nStatistical analyses were performed using GraphPad Prism 9.5 (GraphPad Software, United States). The in vitro luciferase reporter assay was performed in three biological replicates and analyzed with two-way analysis of variance with the post hoc Bonferroni multiple comparison test. […] Differences between groups were considered significant at p < 0.05."}, "[5]": {"test_system": "mGluR4", "details": "ref Mathiesen et al., 2003; Dalton et al., 2017; cited from earlier work"}, "[6]": {"test_system": "ADHD patients", "details": "medium range, smaller than stimulants, ref Cortese et al., 2018; cited from earlier work", "description": "To sum up, the development of new medications for disorders with an excessive impulsivity as a major component is of high interest for both academy and industry. Addictions, including substance use disorder and gambling, faces the unmet need for novel medicines ([Rash et al., 2016]). In case of ADHD there is also a need for new medications with novel mechanisms of action since currently approved drugs show a non-response or lack efficacy in a significant number of patients ([Mechler et al., 2022]). Routinely used stimulant methylphenidate is efficient in up to 70% of cases ([Bodey, 2011]), and ..."}, "[7]": {"test_system": "mGluR4", "experiment": "Luciferase reporter assay, mGluR4", "type": "cell-based", "details": "L-AP4 1 µM; (−)-PHCCC 40 µM; HEK293, N = 3", "procedure": "as §1"}, "[8]": {"test_system": "Wistar rats", "experiment": "Home cage spontaneous locomotor activity (SLA)", "type": "in vivo, rat (Wistar)", "procedure": "Wildtype D. rerio (128 fish, shortfin phenotype, 6–8 months of age, male to female ratio 50: 50) were kept in a ZebTEC recirculating system (Tecniplast S.p.a, Buguggiate, Italy), and housed under a 14/10-h photoperiod (lights on at 08: 00 and off at 22: 00). The system parameters were maintained automatically with water set at 28°C, pH 6.8–7.5, […], and constant aeration. Feeding was carried out twice a day with special food for fish (Special Diet Services, Scientific Fish Food, SDS 300–400). In total, 30 male Sprague Dawley rats were used in the behavioral screening study, and 53 male Wistar rats in the locomotion study (N = 23) and the delay discounting test (N = 30). The animals were housed under constant environmental conditions (12-h photoperiod at 22 ± 2°C) with ad libitum access to food and water. All animal experiments were conducted in accordance with the European Directive 2010/63/EU of the European Parliament (Council of 22 September 2010 on the protection of animals used for scientific purposes) and were approved by the local Bioethics Commissions. All manipulations with animals were carried out at the end of the 14-day adaptation period.\nWe administered LCGM peptides intranasally. Peptides were dissolved in saline at a concentration appropriate for the dosage. For administration, the rat was held in a horizontal position, with its head slightly tilted back. Then, using an automatic laboratory pipette, no more than 10 μL of the peptide solution was carefully introduced into each nostril of the rat. After visually confirming that the entire volume of liquid entered the animal’s nose, the rats were returned to their home cage. […] This route of administration has several advantages for short peptides, such as rapid systemic drug absorption and the potential to bypass the blood–brain barrier more effectively and access the central nervous system ([Pires et al., 2009]; [Lochhead and Thorne, 2012]). For patients, this method is relatively noninvasive and limits the side effects associated with peripheral administration of substances ([Meredith et al., 2015]).\nSpontaneous locomotor activity (SLA) was measured using the Activiscop setup (NewBehavior Inc., Switzerland) ([Madani et al., 2003]). The animals were kept in home cages with free access to food and water. Motor activity was recorded using an infrared sensor located above each cage. The experiment lasted 2 days: On the first day, baseline activity was recorded, and then Wistar rats received LCGM-10 (5 mg/kg in saline, intranasal) and caffeine (30 mg/kg in saline, intraperitoneal) and were recorded for another 24 h. The days were divided into day 1 (12: 00–18: 59), night (19: 00–06: 59), and day 2 (07: 00–11: 59). The results are presented as the number of behavioral acts per minute (arbitrary units [a.u.]) for each animal. The experiment was performed by the Serbsky National Medical Research Center for Psychiatry and Narcology on a contract basis."}, "[9]": {"test_system": "mice", "design": "method as in Kobayashi et al., 2020", "details": "caffeine 25 mg/kg, ref Kobayashi et al., 2020; cited from earlier work"}, "[10]": {"test_system": "rodents", "details": "ref Guimaraes et al., 2015, cited from earlier work", "description": "Therefore, we evaluated the potential of LCGM-10 as a therapeutic in male rats submitted to the OF and EPM. […] The importance of mGluR5 for modulating motor behavior has been reported in pharmacological ([Mcgeehan et al., 2004]; [Guimaraes et al., 2015]) as well as knockout ([Gray et al., 2009]; [Jew et al., 2013]; [Ribeiro et al., 2014]) studies in rodents, with so ..."}, "[11]": {"test_system": "zebrafish", "details": "ref Malyshev et al., 2021; cited from earlier work", "description": "We carried out the two most common tests to evaluate the fish response to the stressful conditions of novelty (NTT) and bright light (LDB). Figure 1 represents the summary data of the effects of the LCGM peptides on the NTT and LDB results relative to each group control, expressed as z-scores. The Supporting Information contains the examples of motor tracks (Supplementary Figures S1, S2), and primary data (Supplementary Figures S3, S4), and Table 2 provides the results of the two-way ANOVA."}}, "note": "“Also recorded” adds a separate entry of the source. Read-outs that look alike come from different tables or passages of the source.", "data": [{"smiles": "CC(NC(C)(C)C)C(=O)c1cccc(Cl)c1", "note": "(stereo not shown) [bupropion]", "values": [{"measurement": "effect on locomotion (in words)", "setting": "[1]; bupropion 30 mg/kg", "value": "motor-stimulating effects"}]}, {"smiles": "N[C@H](C(=O)O)c1cc(O)cc(O)c1", "note": "[DHPG]", "values": [{"measurement": "reference ligand effect on mGluR1 (in words)", "setting": "[2]", "value": "induced luciferase signals"}]}, {"smiles": "N[C@@H](CCC(=O)O)C(=O)[O-].[Na+]", "note": "[GluNa]", "values": [{"measurement": "agonist effect on Ca2+ (in words)", "setting": "[3]; GluNa 1 mM vs non-activated cells, peak fluorescence, N = 7 (activated), N = 5 (basal)", "value": "enhanced fluorescence peak intensity; also recorded: enhanced Ca^2+ influx"}]}, {"smiles": "Cc1ccc(O)c(N=Nc2ccccc2)n1", "note": "[SIB 1757]", "values": [{"measurement": "antagonist effect on mGluR5 activity (in words)", "setting": "[4]", "value": "inhibited mGluR5 activity"}, {"measurement": "antagonist effect on mGluR5 activity (in words)", "setting": "[4]; listed as SIB1757", "value": "depleted"}, {"measurement": "PAM activity at mGluR4 (in words)", "setting": "[5]", "value": "The effect is not observed"}]}, {"smiles": "CNCC[C@@H](Oc1ccccc1C)c1ccccc1", "note": "[atomoxetine]", "values": [{"measurement": "effect size of non-stimulants", "setting": "[6]", "value": "≤ 60", "unit": "%"}]}, {"smiles": "O=C(Nc1ccccc1)C12CC1/C(=N\\O)c1ccccc1O2", "note": "(single isomer, unassigned; (-)) [(−)-PHCCC]", "values": [{"measurement": "reference ligand effect on mGluR1 (in words)", "setting": "[2]", "value": "inhibited DHPG-induced mGluR1 activity"}, {"measurement": "reference ligand effect on mGluR4 (in words)", "setting": "[7]", "value": "enhanced L-AP4-induced mGluR4 activity"}]}, {"smiles": "Cn1c(=O)c2c(ncn2C)n(C)c1=O", "note": "[caffeine]", "values": [{"measurement": "effect on locomotion (in words)", "setting": "[1]; caffeine 10 mg/kg", "value": "motor-stimulating effects"}, {"measurement": "SLA at night (in words)", "setting": "[8]; LCGM-10 5 mg/kg intranasal or caffeine 30 mg/kg intraperitoneal, night (19:00–06:59), F2, 20 = 0.6, p = 0.56", "value": "no effects of treatment on the nighttime activity"}, {"measurement": "duration of SLA increase after administration", "setting": "[8]; LCGM-10 5 mg/kg intranasal, caffeine 30 mg/kg intraperitoneal, 30-min intervals", "value": "up to 90 min"}, {"measurement": "SLA on day 1 (in words)", "setting": "[8]; caffeine 30 mg/kg intraperitoneal, day 1 (12:00–18:59), N = 7–8", "value": "enhanced SLA; also recorded: significant induction of SLA"}, {"measurement": "SLA on day 2 (in words)", "setting": "[8]; caffeine 30 mg/kg intraperitoneal, day 2 (07:00–11:59), N = 7–8", "value": "hypokinesia; also recorded: significant reduction in SLA"}, {"measurement": "hypokinetic rebound (in words)", "setting": "[8]; single administration, LCGM-10 compared with caffeine", "value": "followed by a locomotor depression"}, {"measurement": "duration of SLA increase", "setting": "[9]", "value": "up to 3 h"}]}, {"smiles": "Cc1cccc(C#Cc2ccccc2)n1", "note": "[MPEP, 2-methyl-6-(phenylethynyl) pyridine]", "values": [{"measurement": "effect on locomotion (in words)", "setting": "[10]; applied to olfactory bulbs, dorsolateral striatum, dorsal hippocampus", "value": "stimulatory effect on locomotion"}, {"measurement": "brain regions without locomotor stimulation (in words)", "setting": "[10]; local application", "value": "not primary motor area and ventral striatum"}, {"measurement": "effect on GluNa-evoked Ca2+ influx (in words)", "setting": "[3]; vs 1 mM GluNa, Fluo-4 AM, 3 min preincubation 37°C, pH 7.4, peak fluorescence, N = 6", "value": "effectively blocked GluNa-evoked calcium oscillations in cells at all tested doses"}, {"measurement": "concentrations with significant reduction of intracellular Ca2+ levels", "setting": "[3]; vs activated control (1 mM GluNa), peak fluorescence, q < 0.05, N = 6 each", "value": "0.1 to 100", "unit": "µM"}, {"measurement": "PAM activity at mGluR4 (in words)", "setting": "[5]", "value": "able to act as PAMs of mGluR4"}]}, {"smiles": "N=C(N)NC(=O)Cc1c(Cl)cccc1Cl", "note": "[guanfacine]", "values": [{"measurement": "effect size of non-stimulants", "setting": "[6]", "value": "≤ 60", "unit": "%"}]}, {"smiles": "Cc1cccc(/C=C/c2ccccc2)n1", "note": "[SIB-1893]", "values": [{"measurement": "PAM activity at mGluR4 (in words)", "setting": "[5]", "value": "able to act as PAMs of mGluR4"}]}, {"smiles": "Clc1cccc(Cl)c1N=C1NCCN1", "note": "[clonidine]", "values": [{"measurement": "effect size of non-stimulants", "setting": "[6]", "value": "≤ 60", "unit": "%"}]}, {"smiles": "N[C@@H](CCP(=O)(O)O)C(=O)O", "note": "[L-AP4]", "values": [{"measurement": "reference ligand effect on mGluR4 (in words)", "setting": "[7]", "value": "induced luciferase signals"}]}, {"smiles": "NC(C(=O)O)c1cc(O)ccc1Cl", "note": "(racemic) [CHPG]", "values": [{"measurement": "agonist effect on luciferase signal (in words)", "setting": "[4]; CHPG 1 mM", "value": "enhanced; also recorded: induced a luciferase signal"}]}, {"smiles": "CN1C(=O)CN=C(c2ccccc2)c2cc(Cl)ccc21", "note": "[diazepam]", "values": [{"measurement": "anxiolytic-like activity (in words)", "setting": "[11]", "value": "anxiolytic-like activity"}]}, {"smiles": "Cc1nc(C#Cc2cccnc2)cs1", "note": "[MTEP]", "values": [{"measurement": "PAM activity at mGluR4 (in words)", "setting": "[5]", "value": "The effect is not observed"}]}]}
